This passage reports melting point and IC50 results from patent publication US7429663B2, “7-(Pyrimidin-4-yl)-Imidazo[1,2-a]Pyrimidin-5(1H)-ones as GSK3β inhibitors” (Sanofi-Aventis, priority 2002, dated 2008).

Data set [1] addresses GSK3β (Homo sapiens, UniProt P49841). The data set can be described thus: Inhibitory activity against GSK3β (33P-ATP phosphorylation of prephosphorylated GS1 peptide, two protocols). The following applies: first or second protocol not specified. Format: biochemical. The protocol: Inhibitory Activity of the Medicament of the Present Invention Against GSK3β Two different protocols can be used. In a first protocol : 7.5 μM of prephosphorylated GS1 peptide and 10 μM ATP (containing 300,000 cpm of 33P-ATP) were incubated in 25 mM Tris-HCl, pH 7.5, 0.6 mM DTT, 6 mM MgCl2, 0.6 mM EGTA, 0.05 mg/ml BSA buffer for 1 hour at room temperature in the presence of GSK3β (total reaction volume : 100 microliters). In a second protocol : 4.1 μM of prephosphorylated GS1 peptide and 42 μM ATP (containing 260,000 cpm 33P-ATP) were incubated in 80 mM Mes-NaOH, pH 6.5, 1 mM Mg acetate, 0.5 mM EGTA, 5 mM 2-mercaptoethanol, 0.02% Tween 20, 10% glycerol buffer for 2 hours at room temperature in the presence of GSK3β. Inhibitors were solubilised in DMSO (final solvent concentration in the reaction medium, 1%). The reaction was stopped with 100 microliters of a solution made of 25 g polyphosphoric acid (85% P2O5), 126 ml 85% H3PO4, H2O to 500 ml and then diluted to 1:100 before use. An aliquot of the reaction mixture was then transferred to Whatman P81 cation exchange filters and rinsed with the solution described above. Incorporated 33P radioactivity was determined by liquid scintillation spectrometry. The phosphorylated GS-1 peptide had the following sequence: NH2-[…](P)EDEE-COOH. […]

pIC50: −log10 of the molar value.

GSK3β, sequence (P49841 whole entry, species assumed): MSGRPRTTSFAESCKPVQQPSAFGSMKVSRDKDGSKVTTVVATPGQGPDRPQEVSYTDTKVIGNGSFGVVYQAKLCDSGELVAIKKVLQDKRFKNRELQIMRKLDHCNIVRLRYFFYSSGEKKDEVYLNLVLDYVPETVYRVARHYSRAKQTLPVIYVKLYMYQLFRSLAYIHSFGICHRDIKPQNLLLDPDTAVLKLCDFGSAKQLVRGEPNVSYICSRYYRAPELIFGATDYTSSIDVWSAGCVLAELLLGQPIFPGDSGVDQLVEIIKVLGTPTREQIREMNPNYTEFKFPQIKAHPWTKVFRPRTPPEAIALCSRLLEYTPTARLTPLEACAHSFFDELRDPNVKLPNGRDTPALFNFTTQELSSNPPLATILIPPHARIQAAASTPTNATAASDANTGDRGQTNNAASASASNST

On to `O=C(Cn1ccn2c(=O)cc(-c3ccncn3)nc12)c1ccccc1` [compound 12, 1-(2-Oxo-2-phenyl-ethyl)-7-(pyrimidin-4-yl)-1H-imidazo[1,2-a]pyrimidin-5-one], for which the melting point (as a rule, the temperature, or range, at which the solid turns liquid) lay within 240 to 242 °C. On the same count and under the same terms, then `O=c1cc(-c2ccncn2)nc2n(CC(O)c3ccccc3)ccn12` (stereo not shown) [compound 11, 1-(2-Hydroxy-2-phenyl-ethyl)-7-(pyrimidin-4-yl)-1H-imidazo[1,2-a]pyrimidin-5-one], with 159 to 161 °C.

Compound `O=c1cc(-c2ccncn2)nc2n(CCc3cccc4ccccc34)ccn12` [compound 6, 1-(2-Naphthalen-1-yl-ethyl)-7-(pyrimidin-4-yl)-1H-imidazo[1,2-a]pyrimidin-5-one] displayed a melting point of 215 to 217 °C. Moreover, the pIC50 (usually −log10 of the IC50, conventionally taken in molar units) in data set [1] was 7.68.
